According to article PMC8694140, “Synthesis and photobiological applications of naphthalimide–benzothiazole conjugates: cytotoxicity and topoisomerase IIα inhibition” (RSC Advances, 2021):

Columns and labels:
[1] = tested on: A549 (lung) human cancer cell line; assay: MTT cytotoxicity assay, A549; type: cell-based; details: Homo sapiens, A549, 48 h
Description: (§1) Human malignant cell lines, i.e., MCF7 (breast), HeLa (cervix), and A549 (lung), as well as non-cancerous human cell line Hek293 (kidney), were cultured using the Ham's media or DMEM having 10% FBS, […] streptomycin, 100 U ml^−1 penicillin, and 50 mM glutamine. For seeding of cells, 96 well plates were used, maintaining the density of […] cells per well with the help of DMEM as a media having 10% FBS cells. Then, seeded cells were incubated in an incubator having a 5% CO2 supply at 37 °C. Compounds were added to the wells at 1, 10, and 100 μM concentrations, and cells were incubated for 48 h at 37 °C and then added 10 μl of MTT to each well prepared from 5 mg ml^−1 stock solution using 1 × PBS buffer and were incubated for 4 h at 37 °C in the dark. DMSO (100 μl) was used to dissolve the formazan crystals. To determine the concentration of formazan, the crystal absorbance difference was recorded at 570 nm. The percentage of relative cell toxicity was calculated by using the following eqn (1):1 [drawing 1]

[2] = tested on: MCF7 (breast) human cancer cell line; assay: MTT cytotoxicity assay, MCF7; type: cell-based; details: Homo sapiens, MCF7, 48 h
Description: as §1

[3] = molecular target: human type IIa topoisomerase (Homo sapiens, UniProt P11388); assay: Relaxation assay of human topoisomerase IIa (supercoiled pHOT1 plasmid DNA, agarose gel); type: biochemical; details: compared with etoposide (Fig. S56)
human type IIa topoisomerase, sequence (P11388 whole entry): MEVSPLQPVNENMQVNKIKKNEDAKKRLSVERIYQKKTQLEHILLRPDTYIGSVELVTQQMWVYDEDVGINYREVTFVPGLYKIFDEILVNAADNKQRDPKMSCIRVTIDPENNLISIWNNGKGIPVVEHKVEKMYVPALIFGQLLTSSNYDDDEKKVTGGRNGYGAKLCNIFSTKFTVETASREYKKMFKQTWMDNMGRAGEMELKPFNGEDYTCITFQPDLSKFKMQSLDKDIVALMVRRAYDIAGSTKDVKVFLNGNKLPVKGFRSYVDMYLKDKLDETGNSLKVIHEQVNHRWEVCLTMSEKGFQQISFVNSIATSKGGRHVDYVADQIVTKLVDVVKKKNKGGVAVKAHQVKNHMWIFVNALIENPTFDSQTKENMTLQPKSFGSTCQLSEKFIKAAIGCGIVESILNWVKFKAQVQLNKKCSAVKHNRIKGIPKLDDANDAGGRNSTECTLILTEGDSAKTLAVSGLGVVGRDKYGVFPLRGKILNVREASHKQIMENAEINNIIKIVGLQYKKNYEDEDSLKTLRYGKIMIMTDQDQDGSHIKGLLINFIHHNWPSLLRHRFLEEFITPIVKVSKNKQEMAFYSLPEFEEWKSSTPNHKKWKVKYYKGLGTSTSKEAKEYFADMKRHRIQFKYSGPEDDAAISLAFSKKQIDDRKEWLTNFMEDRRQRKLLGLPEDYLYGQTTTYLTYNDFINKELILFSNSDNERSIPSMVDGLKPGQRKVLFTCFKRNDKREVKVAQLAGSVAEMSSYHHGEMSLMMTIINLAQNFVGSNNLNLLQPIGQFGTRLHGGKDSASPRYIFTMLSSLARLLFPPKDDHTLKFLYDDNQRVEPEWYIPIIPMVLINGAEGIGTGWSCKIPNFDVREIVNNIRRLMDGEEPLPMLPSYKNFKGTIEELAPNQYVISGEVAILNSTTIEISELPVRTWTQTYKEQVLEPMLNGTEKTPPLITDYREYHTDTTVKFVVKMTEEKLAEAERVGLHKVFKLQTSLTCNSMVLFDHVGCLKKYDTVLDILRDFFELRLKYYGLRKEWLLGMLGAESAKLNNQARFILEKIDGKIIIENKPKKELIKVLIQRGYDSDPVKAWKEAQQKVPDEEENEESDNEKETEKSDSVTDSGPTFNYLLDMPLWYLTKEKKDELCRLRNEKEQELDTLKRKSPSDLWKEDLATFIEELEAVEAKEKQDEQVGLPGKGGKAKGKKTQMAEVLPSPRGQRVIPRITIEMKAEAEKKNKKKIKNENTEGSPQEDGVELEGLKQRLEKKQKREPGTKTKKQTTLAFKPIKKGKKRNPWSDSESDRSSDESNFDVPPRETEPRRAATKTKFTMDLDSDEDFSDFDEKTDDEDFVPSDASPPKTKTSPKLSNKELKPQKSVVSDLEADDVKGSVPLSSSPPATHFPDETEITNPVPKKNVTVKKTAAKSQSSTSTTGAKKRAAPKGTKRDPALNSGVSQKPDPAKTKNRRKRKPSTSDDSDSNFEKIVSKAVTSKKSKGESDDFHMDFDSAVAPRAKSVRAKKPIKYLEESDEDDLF
Description: The concentrations 0.1, 0.5, 1, 1.5, 2, and 3 μM were taken for both compounds (Fig. 3).
The assay of human type IIa topoisomerase mediated relaxation of supercoiled plasmid DNA was performed using reaction buffer (20 μl) (5 mM dithiothreitol, 0.5 M Tris–HCl, pH 8.0, 20 mM ATP, 1.50 M NaCl, 300 μg ml^−1 BSA, and 100 mM MgCl2) having supercoiled pHOT1 plasmid DNA (500 ng) and human type IIa topoisomerase enzyme (4 units). The reaction mixtures were incubated for 30 min at 37 °C, followed by adding 10% sodium dodecyl sulfate (2 μl) to stop the reaction. Added 0.5 mg ml^−1 proteinase K (1 μl) to the reaction mixture and allowed to incubate for 15 min at 37 °C. Then, added loading buffer, i.e., 0.25% bromophenol blue and 50% glycerol (1 μl) to the reaction mixture and run on 1% agarose gel electrophoresis using TAE buffer (1.14 ml acetic acid, and 0.37 g EDTA pH 8.1, and 100 ml of 10× stock solution–4.8 g of Tris base). The gel containing DNA was stained with ethidium bromide, washed, and photographed using UV light.

[4] = molecular target: T1, human serum albumin (HSA) (Homo sapiens, UniProt P02768); assay: UV-vis absorption titration of HSA (Benesi–Hildebrand); type: binding; details: HSA 10 μM; for enhancement in absorbance of HSA at 280 nm: compound up to 7 μM; for Kd: UV-vis, phosphate buffer pH 7.4, 298 K, read-out: binding constant compound–HSA (Benesi–Hildebrand) (converted)
T1 sequence (P02768 25-609): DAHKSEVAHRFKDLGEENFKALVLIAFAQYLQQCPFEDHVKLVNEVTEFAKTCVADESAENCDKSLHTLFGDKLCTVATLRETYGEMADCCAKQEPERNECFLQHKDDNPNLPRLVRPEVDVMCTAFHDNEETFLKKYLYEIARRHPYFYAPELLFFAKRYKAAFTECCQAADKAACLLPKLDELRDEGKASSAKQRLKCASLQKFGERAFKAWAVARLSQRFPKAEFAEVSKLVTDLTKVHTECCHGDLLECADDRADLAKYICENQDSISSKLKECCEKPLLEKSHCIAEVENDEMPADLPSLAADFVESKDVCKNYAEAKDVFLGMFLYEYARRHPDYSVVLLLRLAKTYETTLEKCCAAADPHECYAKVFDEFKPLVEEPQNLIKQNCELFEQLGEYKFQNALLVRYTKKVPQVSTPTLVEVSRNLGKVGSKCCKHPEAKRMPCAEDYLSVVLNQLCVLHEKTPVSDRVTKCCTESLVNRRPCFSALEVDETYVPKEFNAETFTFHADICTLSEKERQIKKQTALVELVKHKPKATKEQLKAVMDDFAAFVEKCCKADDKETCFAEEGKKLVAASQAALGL
Description: To check the interactions between HSA and compounds, UV-vis absorption spectra of HSA (10 μM) were recorded in the absence and incremental additions of compounds 12 and 13 (7 μM). Noteworthy, enhancement in absorbance of HSA at 280 nm (57% for compound 12 and 51% for compound 13) on increasing concentrations of compounds indicated perturbations in the microenvironment of protein's chromophores as a result of interaction between HSA and compounds along with the development of new band at 348 nm (Fig. 4). Increasing the concentration of compounds also produces an enhancement in absorbance value at 348 nm. The binding constants for the compound–HSA system were calculated by Benesi–Hildebrand eqn (2)[32] as 1.75 × 10^5 M^−1 for compound 12 and 1.88 × 10^5 M^−1 for compound 13 (Fig. S57 ^†). These strong binding affinities are favorable for the adequate transportation of these compounds to their target sites.
To record the absorption spectra of HSA, a fixed amount of HSA (10 μM) was titrated with the increasing concentrations of compounds 12 and 13 (7 μM) in the phosphate buffer of pH 7.4 at 298 K. The phosphate buffer was used as a blank solution for baseline corrections. The absorption spectra were recorded in the range of 200–800 nm. […] To calculate the Kb value, the ratio of intercept to the slope was used as A0/(A − A0) versus 1/[compound] plots.

[5] = molecular target: T1, human serum albumin (HSA); assay: Synchronous fluorescence spectroscopy of HSA; type: binding; details: Δλ = 15 nm, tyrosine residue
From the text: Synchronous fluorescence spectroscopy (SFS) is commonly used to evaluate the effect of ligand binding on the microenvironment of protein and its amino acids. It is usually observed that a change in polarity of the chromophore of protein causes deviation in the excitation wavelength of a particular amino acid residue.[48,49] This deviation can provide information about the change in confirmation of HSA on the binding of ligand. The SFS of HSA was noted using a fixed difference in wavelengths (Δλ) of 15 nm and 60 nm of synchronized recording of excitation and emission monochromators, which are characteristics of tyrosine and tryptophan amino acid residues, respectively.[50,51] […] The addition of compounds 12 and 13 produced a slight blue shift of about 4 nm at Δλ = 15 nm, corresponding to a tyrosine residue.
The synchronous fluorescence experiment of HSA was performed at a fixed amount of HSA and increasing concentrations of compounds 12 and 13. The spectra were recorded by taking the difference between the wavelengths of excitation and emission (Δλ = λemi − λexc) at 15 nm and 60 nm.

[6] = molecular target: T1, human serum albumin (HSA); assay: Energy transfer (FRET) between HSA and compounds; type: binding; details: compound acceptor; for E (efficiency of energy transfer) / R0 (critical distance, 50% efficiency of energy transfer): HSA donor
From the text: Eqn (8)–(10) are used to calculate the values of overlap integral of an emission spectrum of donor with the absorption spectrum of the acceptor (J), the critical distance (50% efficiency of energy transfer, R0), efficiency of energy transfer (E), and the distance among donor and acceptor (r). […] The calculated distance between donor and acceptor for compounds 12 and 13 was found less than 8 nm, and both compounds follow 0.5R0 < r < 1.5R0.
The energy transfer study was accomplished by recording the HSA emission spectrum at 280 nm excitation wavelength and the absorption spectra of compounds 12 and 13.
The following eqn (8)–(10) were used to determine the donor to acceptor energy transfer (E), the critical distance required for energy transfer by 50% (R0), overlap integral of the emission spectrum of donor with the absorption spectrum of the acceptor (J), and distance among the donor and the acceptor (r):[39,57]8 [drawing 6] In this equation, F0 and F denote the emission intensities of HSA in free form and the presence of compounds 12 and 13, respectively.9 R0^6 = 8.8 × 10^−25k^2η^−4ϕJwhere k^2, η, ϕ denote the orientation factor of dipoles, refracted index for used medium, and fluorescence quantum yield of the donor.10 [drawing 7] In this equation, F(λ) denotes the emission intensity for the free form of the donor at the wavelength λ, whereas ε(λ) denotes the molar absorption coefficient of acceptor at the wavelength λ.

inhibition of topoisomerase II relaxation ([3]; 1 μM) | inhibition of topoisomerase II relaxation ([3]; 5, 10 and 50 μM) | enhancement in absorbance of HSA at 280 nm [4] [%] | Kd [4] [µM] | blue shift of synchronous fluorescence of HSA [5] | E (efficiency of energy transfer) [6] | R0 (critical distance, 50% efficiency of energy transfer) [6] [nm] | J (overlap integral of donor emission with acceptor absorption) [6] | r (distance among donor and acceptor) [6] [nm] | Compound | IC50 [1] [µM] | IC50 [2] [µM]
partially inhibitor | significant and active inhibitors | 51 | 5.32 | about 4 nm | 0.93 | 0.591 | 1.039 × 10^−18 cm^3 L mol^−1 | 0.377 | C#CCN1C(=O)c2cccc3c(-c4ccc5c(c4)c(-c4nc6ccccc6s4)cn5CC=C)ccc(c23)C1=O [Compound 13, 6-(1-Allyl-3-(benzo[d]thiazol-2-yl)-1H-indol-5-yl)-2-(prop-2-yn-1-yl)-1H-benzo[de]isoquinoline-1,3(2H)-dione] | 0.31 ± 0.01 | 3.49 ± 0.12
partially inhibitor | significant and active inhibitors | 57 | 5.71 | about 4 nm | 0.92 | 0.592 | 1.04 × 10^−18 cm^3 L mol^−1 | 0.393 | C=CCn1cc(-c2nc3ccccc3s2)c2cc(-c3ccc4c5c(cccc35)C(=O)N(CCO)C4=O)ccc21 [Compound 12, 6-(1-Allyl-3-(benzo[d]thiazol-2-yl)-1H-indol-5-yl)-2-(2-hydroxyethyl)-1H-benzo[de]isoquinoline-1,3(2H)-dione] | 0.14 ± 0.01 | 3.81 ± 0.19
